Data set [1] in a line: Persistence over time, blood samples (Example 18). Type of data set: in vivo, mice. The conditions noted are these: label = analyte. The protocol:
(§1) Blood samples from each mouse were collected at each time point for the pharmacokinetics tests. For 6 h after administrating of all tested drugs, and after testing their WRL on the hot plate, half the mice (n=3) of each group were sacrificed, and the liver and brain of each animal were taken for pharmacokinetics tests. From the remaining mice, blood samples were acquired at 12 h after administration for pharmacokinetics tests. At 24 h after drug administration, and after checking the WRL again, second half of each group of mice were sacrificed, and the liver and brain of each animal were taken for pharmacokinetics tests.

The nature of data set [2]: Pharmacokinetics, blood samples (Example 17). The conditions noted are these: 0.5 h after i.p. injection of THC or THC-d5, label = analyte; for Component in the blood, Average: n=6 (THC-d5 n=5). The protocol:
The pharmacokinetics of 9-CD3-(8-D2)-THC compared to natural THC was evaluated using both intraperitoneal i.p. injection and an oral gavage administration for each material. The mice were divided into four groups containing 6 mice (24 mice total). For each group of mice, a blood sample was withdrawn at baseline (t=0), and half-hour intervals (t=0.5, 2 and 5 h) after administration of the drug. Three mice, half of each group, were euthanized with CO2 after 5 h and their organs (brain and liver) were collected. From the second half of each group, another blood sample was withdrawn 24 h after administration, and then these animals were euthanized and the brain and liver were collected for analysis.

Data set [3] can be described thus: Persistence over time, liver samples postmortem (Example 18). Type of data set: in vivo, mice. The protocol:
as §1
(§2) All the results of the brain and liver samples, which were taken postmortem 6 h or 24 h after administration (n=3) are summarized in Tables 12-13.

Data set [4] in a line: Pharmacokinetics, liver samples (Example 17). Type of data set: in vivo, mice. The conditions noted are these: label = analyte; for Component in the liver, Average: n=3.
Data set [5] is described as follows: Persistence over time, brain samples postmortem (Example 18). The conditions noted are these: 8 mg/kg administered, died at 6 h; number in brackets = mice with a value. Type of data set: in vivo, mice. The protocol:
as §1, §2

The mark [6] stands for this setting: 4 mg/kg administration of THC or THC-d5, Time 0.5 h.
Where [7] appears, read: 4 mg/kg administration, Time 3 h.
The mark [8] stands for this setting: 8 mg/kg administration of THC or THC-d5, Time 0.5 h.
Where [9] appears, read: 8 mg/kg administration, Time 3 h.
The mark [10] stands for this setting: 2 mg/kg administered, died at 6 h.
[11] abbreviates: 4 mg/kg administered, died at 6 h.
The mark [12] stands for this setting: 8 mg/kg administered, died at 6 h.
Setting [13] is: 5 h after oral gavage administration of THC or THC-d5.
[14] abbreviates: 24 h after i.p. injection of THC or THC-d5.

SMILES strings stand for the structures.

Regarding `CCCCCc1cc(O)c2c(c1)OC(C)(C)[C@@H]1CCC(CO)=C[C@@H]21` [11-OH-THC], the “Average results, blood samples” value in data set [1] (setting [6]) was 1.54 ng/mL. Further, in data set [1] (setting [7]), the “Average results, blood samples” value is on record as 0.18 (2/2) ng/mL. Further, the “Average results, blood samples” value in data set [1] (setting [8]) came to 1.96 ng/mL. Besides, in data set [1] (setting [9]), the “Average results, blood samples” value is given as 0.44 ng/mL. Besides, in data set [2], the “Component in the blood, mouse 1” value is reported as 2.40 ng/mL; the “Component in the blood, mouse 2” value was 2.44 ng/mL; the “Component in the blood, mouse 3” value was 2.10 ng/mL; the “Component in the blood, mouse 4” value amounted to 3.43 ng/mL. In data set [2], the “Component in the blood, mouse 5” value amounted to 2.27 ng/mL; the “Component in the blood, mouse 6” value is 2.37 ng/mL; the “Component in the blood, Average” value is 2.50 ng/mL. For the same molecule, in data set [3] (setting [10]), the “Average results for 3 mice (Table 13, liver)” value is recorded as 8.76 ng/g. Besides, the “Average results for 3 mice (Table 13, liver)” value in data set [3] (setting [11]) worked out at 41.89 ng/g. Besides, in data set [3] (setting [12]), the “Average results for 3 mice (Table 13, liver)” value worked out at 22.94 ng/g. Further, the “Average results for 3 mice (Table 13, liver)” value in data set [3] (8 mg/kg administered, died at 24 h, number in brackets = mice with a value) is recorded as 5.57 (1) ng/g. For the same molecule, in data set [4] (setting [13]), the “Component in the liver, mouse 1” value is reported as 6.56 ng/mL; the “Component in the liver, mouse 2” value was 23.90 ng/mL; the “Component in the liver, mouse 3” value is listed as 2.83 ng/mL; the “Component in the liver, Average” value is on record as 11.10 ng/mL. For the same molecule, in data set [4] (setting [14]), the “Component in the liver, mouse 1” value is reported as 0.37 ng/mL; the “Component in the liver, mouse 2” value worked out at 3.12 ng/mL; the “Component in the liver, mouse 3” value is recorded as 1.46 ng/mL. For the same molecule, in data set [5], the “Average results for 3 mice - brain samples” value is on record as 5.2 (2) ng/g.

Turning to `CCCCCc1cc(O)c2c(c1)OC(C)(C)[C@@H]1CCC(C(=O)O)=C[C@@H]21` [11-COOH-THC, 11-nor-9-carboxy-THC], the “Average results, blood samples” value in data set [1] (setting [6]) is reported as 11.87 ng/mL; in data set [1] (setting [7]), 1.39 (4/4) ng/mL; in data set [1] (4 mg/kg administration, Time 6 h), 0.41 (2/2) ng/mL; in data set [1] (setting [8]), 15.85 ng/mL; in data set [1] (setting [9]) it was 3.44 ng/mL; in data set [1] (8 mg/kg administration, Time 6 h) it was 3.57 ng/mL. Besides, in data set [1] (8 mg/kg administration, Time 12 h (3 mice)), the “Average results, blood samples” value is 1.89 ng/mL. Further, the “Component in the blood, mouse 1” value in data set [2] turned out to be 30.26 ng/mL. Further, the “Component in the blood, mouse 2” value in data set [2] is on record as 22.27 ng/mL. Moreover, in data set [2], the “Component in the blood, mouse 3” value is 20.76 ng/mL. Moreover, the “Component in the blood, mouse 4” value in data set [2] is given as 32.18 ng/mL. The “Component in the blood, mouse 5” value in data set [2] was found to be 25.30 ng/mL. The “Component in the blood, mouse 6” value in data set [2] came to 19.81 ng/mL. Besides, in data set [2], the “Component in the blood, Average” value came to 25.10 ng/mL. The “Average results for 3 mice (Table 13, liver)” value is recorded as 3.83 ng/g in data set [3] (setting [10]); 46.06 ng/g in data set [3] (setting [11]); 2.89 (1) ng/g in data set [3] (4 mg/kg administered, died at 24 h, number in brackets = mice with a value); 60.95 ng/g in data set [3] (setting [12]). Also, the “Component in the liver, mouse 1” value in data set [4] (setting [13]) worked out at 38.89 ng/mL. Further, the “Component in the liver, mouse 2” value in data set [4] (setting [13]) is recorded as 33.82 ng/mL. For the same molecule, the “Component in the liver, mouse 3” value in data set [4] (setting [13]) is given as 25.34 ng/mL; in data set [4] (setting [14]), 1.49 ng/mL. Besides, the “Component in the liver, Average” value in data set [4] (setting [13]) came out at 32.68 ng/mL. Also, the “Average results for 3 mice - brain samples” value in data set [5] was 2.04 (1) ng/g.

The values above are taken from patent US20230331690A1, “THC DERIVATIVES, ORAL DOSAGE FORMS COMPRISING SAME, USES THEREOF FOR TREATING DISEASES AND DISORDERS AND SYNTHESIS THEREOF” (BAR-ILAN UNIVERSITY, priority 2020, published 2023).
